The values that follow come from US20260041649A1, “ANTI-INFLAMMATORY AGENT” (WATANABE OYSTER LABORATORY, CO., LTD., priority 2023, published 2026).

The test system of the assay is RAW264.7 cells cultured with LPS. The assay can be described thus: Cell death of RAW264.7 cells cultured with LPS. The format is cell-based, mouse. The note with it: DHMBA 1 or 10 μM, LPS 100 ng/ml, 48 hours, subconfluent cells. The procedure: In FIG. 5A, to examine the effect on cell proliferation, RAW264.7 cells (1×10^5/ml/well) were cultured for 3 days in a DMEM culture medium containing 10% FBS, 1% P/S, and 1% fungizone in the control group (1% ethanol as final concentration) with or without LPS (1, 10, 50, 100, 500 ng/ml). In FIG. 5B, cells (1×10^5/ml per well) were cultured for 3 days in a DMEM culture medium containing 10% FBS, 1% P/S, and 1% fungizone in the DHMBA-treated group (1 or 10 μM) with or without LPS (100 ng/ml). In FIG. 5C, to examine the effect on cell death, cells that had reached subconfluence after 3 days of culture were cultured for another 48 hours in the control group (1% ethanol) with or without LPS (1, 10, 50, 100, or 500 ng/ml). […] After the culture, the number of cells attached to the dish was counted. […]
In an additional experiment, to determine the effect of DHMBA on RAW264.7 cell death, RAW264.7 cells were cultured in the presence of LPS. […] After the culture, the cells were detached with a Ca^2+/Mg^2+ free PBS solution with 0.05% trypsin/EDTA (0.1 ml per well) as described in the “Cell proliferation assay” section, and the cells were counted as described in the “Cell count” section below. […]
The number of viable cells was counted under a microscope (Olympus MTV-3) using a hemocytometer (Sigma-Aldrich) and a cell counter (H-102P, Line Seiki Co., Ltd., Tokyo, Japan).

With `COc1c(O)cc(CO)cc1O` [DHMBA, 3,5-dihydroxy-4-methoxybenzyl alcohol], the “effect on RAW264.7 cell death in the presence of LPS” value is “exhibited”.
